The source of these data is patent US7491835B2, “Prodrugs of amino acids with affinity for the α2δ-protein” (Pfizer Inc, priority 2003, dated 2009).

For one data set, the system named is Caco-2 cells. Put plainly: Caco-2 cell transport and efflux (permeability) study. On the procedure: (§1) Mannitol was used as a negative marker since it appears to be absorbed through the paracellular rather than the transcellular pathway. Cell transport, and efflux studies were conducted with Caco-2 cells grown on Snapwells between 22 to 28 days postseeding. Typically, 10 mM MES buffer (pH 6.5) with 5 mM KCl, 135 mM NaCl, 1.8 mM CaCl2, and 5 mM D-glucose was used for the AP side and 10 mM MOPS (pH 7.4) with 5 mM KCl, 132.5 mM NaCl, 1.8 mM CaCl2, and 5 mM D-glucose was used for the BL side. After washing the monolayers, drug-free media at the appropriate pH (pH 7.4 or 6.5) were first added to both compartments to allow the cells to equilibrate for approximately 15 min at 37° C. Transport studies were then conducted using 1.5 mL of transport media in the apical side and 2.5 mL in the basolateral side. The donor solution containing the probe compound was added to either the apical or basolateral compartment. Plates were placed in a shaking incubator (Boekel Scientific, Feasterville, Pa.) at 37° C. during the experiments. Transport in both apical-to-basolateral (A-to-B) and basolateral-to-apical (B-to-A) directions was measured for each drug. Aliquots were removed from the nondosing compartment at predetermined time points and replaced with fresh medium to maintain a constant volume. During studies with radiolabeled compounds, 100 uL samples were taken at each time point. The apparent permeability coefficients (Papp) were calculated using the following equation: Papp=dQ/dtX1/CoX1/A, where dQ/dt is the permeability rate, Co is the initial concentration in the donor compartment, and A is the surface area of the membrane. Flux rates (dQ/dt×1/A) were calculated by plotting the amount transported per unit area as a function of time and determining the slope of the line using linear regression.
A general note: Caco-2 monolayers are a common model of the intestinal barrier.

The nature of data set [1]: Vogel conflict model of anxiety. In kind it is in vivo. As to conditions: 30 mg/kg, PO. The source says: The In vivo activity of compounds of this invention can be determined in animal models of hyperalgesia (See Sluka, K., et al. 2001, “Unilateral Intramuscular Injections Of Acidic Saline Produce A Bilateral, Long-Lasting Hyperalgesia”, Muscle Nerve 24: 37-46; Dixon, W., 1980, “Efficient analysis of experimental observations”. Ann Rev Pharmacol Toxicol 20:441-462; Randall L. O. and Selitto J. J., “A Method For Measurement Of Analgesic Activity On Inflamed Tissue,” Arch. Int. Pharmacodyn, 1957;4:409-419; Hargreaves K., Dubner R., Brown F., Flores C., and Joris J. “A New And Sensitive Method For Measuring Thermal Nociception In Cutaneous Hyperalgesia”. Pain. 32:77-88, 1988.), anxiety (Vogel J. R., Beer B., and Clody D. E., “A Simple And Reliable Conflict Procedure For Testing Anti-Anxiety Agents”, Psychopharmacologia 21:1-7, 1971),
The In vivo activity of a compound of this invention was determined in an animal model of anxiety as set forth in Vogel J R, Beer B., and Clody D E, “A Simple And Reliable Conflict Procedure For Testing Anti-Anxiety Agents”, Psychopharmacologia 21:1-7, 1971).

A short description of the next data set: in vitro. To be noted: human, Caco-2. How it is done:
as §1

Usually Papp A→B stands for how fast a substance crosses the layer from the apical side. A higher Papp A→B goes with ready permeation. Broadly, the Papp B→A is how fast a substance crosses the layer from the basolateral side. The efflux ratio is the permeability from basolateral to apical divided by that in the opposite direction, in the common usage.

`CCCC[C@@H](C)C[C@H](CNC(=O)[C@@H](N)CC(C)C)CC(=O)O` [3S-[(2S-Amino-4-methyl-pentanoylamino)-methyl]-5R-methyl-nonanoic acid]: in the data set with Caco-2 cells (Caco-2, 10 uM, concluded from ratio B to A/A to B), the Substrate for efflux result is given as “unlikely to be a substrate for efflux”. Moreover, the “A to B Peff * 10^−6” value with Caco-2 cells (Caco-2, apical to basal, apical pH 6.5, basolateral pH 7.4, 37° C.) was 0.74 10^−6. For the same compound, the “Caco-2 permeability, apical to basolateral direction” value in the data set on Caco-2 cells (concentration of 10 uM) came out at 0.74 ×10⁻⁶ cm/s.
Take `CCC[C@@H](C)C[C@H](CNC(=O)[C@@H](N)CC(C)C)CC(=O)O` [3S-[(2S-Amino-4-methyl-pentanoylamino)-methyl]-5R-methyl-octanoic acid]: in data set [1], the “Anxiolytic Activity, percent reference activity compared to pregabalin” value is 138.10%.
For `OC[C@@H](O)[C@@H](O)[C@H](O)[C@H](O)CO` [Mannitol], in the data set “in vitro”, the Papp A→B was 1.81 ×10⁻⁶ cm/s, the basolateral-to-apical permeability (Papp B→A) turned out to be 1.41 ×10⁻⁶ cm/s and the efflux ratio is 0.78.
In the case of `COCCc1ccc(OCC(O)CNC(C)C)cc1` (stereo not drawn) [Metoprolol], in the data set “in vitro”, the Papp A→B came out at 8.74 ×10⁻⁶ cm/s and the Papp B→A came out at 20.3 ×10⁻⁶ cm/s.
